Literature values as cited in patent US20060099249A1, “Modified release formulations of at least one form of tramadol” (priority 2002, published 2006).
Read-outs that look alike come from different tables or passages of the source.

Tests used:
[1] = system: osteoarthritis; conditions: rofecoxib 12.5 mg
[2] = system: osteoarthritis; conditions: 12 weeks, celecoxib 100 mg BID, Naproxen 500 mg BID
[3] = Study No. 033, Ibuprofen 2400 mg, over 6-weeks
[4] = Study No. 040, Ibuprofen 2400 mg, over 6-weeks
[5] = Study No. 058, Nabumetone 1500 mg, over 6-weeks

SMILES	WOMAC pain walking on a flat surface, mean difference vs placebo [1, 3]	WOMAC pain walking on a flat surface, mean difference vs placebo [1, 4]	WOMAC pain walking on a flat surface, mean difference vs placebo [1, 5]	Arthritis Pain VAS change from baseline, LS mean difference vs placebo ([2]; Study No. 020)	Arthritis Pain VAS change from baseline, LS mean difference vs placebo ([2]; Study No. 054)	WOMAC pain walking on a flat surface, mean difference vs placebo ([1]; Study No. 029, LS mean change from baseline over 6-weeks)
CC(C)Cc1ccc(C(C)C(=O)O)cc1 (stereo not drawn) [Ibuprofen]	13.5 mm	14.6 mm	–	–	–	–
COc1ccc2cc(CCC(C)=O)ccc2c1 [Nabumetone]	–	–	10 mm	–	–	–
COc1ccc2cc([C@H](C)C(=O)O)ccc2c1 [Naproxen]	–	–	–	7.6 mm	11.2 mm	–
CS(=O)(=O)c1ccc(C2=C(c3ccccc3)C(=O)OC2)cc1 [rofecoxib, Rofecoxib]	12.4 mm	15.4 mm	9.0 mm	–	–	14.3 mm
